In patent US9708336B2, “Metallo-beta-lactamase inhibitors” (priority 2014, dated 2017):
Where two headings read alike, the source gives them in different places.

Experiments:
VIM-1 = VIM-1 (Pseudomonas aeruginosa (strain ATCC 15692 / DSM 22644 / CIP 104116 / JCM 14847 / LMG 12228 / 1C / PRS 101 / PAO1), UniProt A0A0F7KYQ8); assay: Enzyme activity: determination of IC50, fluorescence assay with CCF2-FA substrate (VIM-1); assay type: biochemical
IMP-1 = IMP-1 (Serratia marcescens, UniProt P52699); assay: biochemical; assay type: biochemical; details: read-out: IMP-1 IC50
Chain of IMP-1 (P52699 whole entry, looked up): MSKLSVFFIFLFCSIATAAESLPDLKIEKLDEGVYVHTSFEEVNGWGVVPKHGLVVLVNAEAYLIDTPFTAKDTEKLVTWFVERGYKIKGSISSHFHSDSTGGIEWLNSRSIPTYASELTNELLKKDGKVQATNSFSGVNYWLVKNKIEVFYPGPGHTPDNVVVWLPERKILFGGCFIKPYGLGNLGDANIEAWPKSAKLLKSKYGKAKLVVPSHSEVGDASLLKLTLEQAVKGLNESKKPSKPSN
Procedure: Enzyme Activity: Determination of IC50
The Class B enzyme activities were measured in the presence of the test inhibitor in a fluorescence assay against a commercially available substrate consisting of a cephalosporin core linking 7-hydroxycoumarin to fluorescein (CCF2-FA). The enzyme (NDM-1, IMP-1 or VIM-1) and the substrate were diluted in 100 mM KH2PO4 buffer (pH 7) containing 0.005% Tween-20 and 10 μM ZnSO4. […] The test inhibitor was dissolved in dimethylsulfoxide and diluted 1:50 in the assay, resulting in a final concentration range of 20 uM to 0.00063 uM. In a 384-well microplate, the test inhibitor was incubated with the metallo-β-lactamase enzyme and the substrate for 2 hours at 25° C. Fluorescence at 460 nm following excitation at 405 nm was measured. The IC50 value was determined from semi-logarithmic plots of enzyme inhibition versus inhibitor concentration, with a curve generated using a 4-parameter fit.

NDM-1 = NDM-1 (Klebsiella pneumoniae, UniProt C7C422); assay: biochemical; assay type: biochemical; details: read-out: NDM-1 IC50
Chain of NDM-1 (C7C422 whole entry, looked up, species assumed): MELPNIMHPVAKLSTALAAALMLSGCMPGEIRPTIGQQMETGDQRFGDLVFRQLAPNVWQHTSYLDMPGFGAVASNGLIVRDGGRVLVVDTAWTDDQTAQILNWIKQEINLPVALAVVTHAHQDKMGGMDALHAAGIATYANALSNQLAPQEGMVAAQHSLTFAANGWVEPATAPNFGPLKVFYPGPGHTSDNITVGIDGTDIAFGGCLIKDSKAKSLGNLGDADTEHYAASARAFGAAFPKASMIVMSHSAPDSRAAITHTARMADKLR

[1] = tested on: Escherichia coli expressing NDM-1 (CLB30005); assay: Antibiotic potentiation activity: synergistic concentration (MITC95) with imipenem, OD600 growth; assay type: cell-based; details: for Escherichia coli expressing NDM-1 (CLB 30005) MITC95: concentration giving 95% inhibition of bacterial growth; for Escherichia coli MITC95: Escherichia coli expressing NDM-1 (CLB30005), 95% growth inhibition
Summary of the method: (§1)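 Each strain, suspended in saline from overnight colonies and diluted 1:100 into 1.1× CAMHB, is dosed with imipenem at 4 μg/ml (or 1 μg/ml) plus compound, incubated 22–24 h at 35 °C and read by absorbance.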

[2] = tested on: Serratia marcescens expressing IMP-1 (CL5741); assay: as above; assay type: cell-based; details: for Serratia marcescens expressing IMP-1 (CL5741) MITC95: concentration giving 95% inhibition of bacterial growth; for Serratia marcescens MITC95: Serratia marcescens expressing IMP-1 (CL5741), 95% growth inhibition
Summary of the method: as §1

[3] = tested on: Klebsiella pneumoniae expressing VIM-1 (IHMA599644); assay: as above; assay type: cell-based; details: for Klebsiella pneumoniae expressing VIM-1 (IHMA 599644) MITC95: concentration giving 95% inhibition of bacterial growth; for Klebsiella pneumoniae MITC95: Klebsiella pneumoniae expressing VIM-1 (IHMA599644), 95% growth inhibition
Summary of the method: as §1

[4] = fluorescence assay with CCF2-FA substrate, read-out: VIM-1 IC50
[5] = fluorescence assay with CCF2-FA substrate
[6] = VIM-1 enzyme, CCF2-FA fluorescence assay, read-out: VIM-1 IC50
[7] = IMP-1 enzyme, CCF2-FA fluorescence assay
[8] = NDM-1 enzyme, CCF2-FA fluorescence assay

| SMILES | IC50 (VIM-1; [4]) [nM] | IC50 (IMP-1; [5]) [nM] | IC50 (NDM-1; [5]) [nM] | Escherichia coli expressing NDM-1 (CLB 30005) MITC95 [1] [µM] | Serratia marcescens expressing IMP-1 (CL5741) MITC95 [2] [µM] | Klebsiella pneumoniae expressing VIM-1 (IHMA 599644) MITC95 [3] [µM] | IC50 (VIM-1; [6]) [nM] | IC50 (IMP-1; [7]) [nM] | IC50 (NDM-1; [8]) [nM] | Escherichia coli MITC95 [1] [µM] | Serratia marcescens MITC95 [2] [µM] | Klebsiella pneumoniae MITC95 [3] [µM] | IC50 (VIM-1; VIM-1 IC50, VIM-1 enzyme, CCF2-FA fluorescence assay) [nM] |
| --- | --- | --- | --- | --- | --- | --- | --- | --- | --- | --- | --- | --- | --- |
| CC1(c2ccc(-c3cccc(S(N)(=O)=O)c3-c3nn[nH]n3)cc2)SC(=O)NC1=O (stereo not drawn) [Example 75, 4′-(5-methyl-2,4-dioxo-1,3-thiazolidin-5-yl)-2-(2H-tetrazol-5-yl)biphenyl-3-sulfonamide] | 98.1 | 9.96 | 4.57 | 6.25 | 3.906 | >200 | – | – | – | – | – | – | – |
| CONC(=O)c1ccc(-c2cccc(S(N)(=O)=O)c2-c2nn[nH]n2)cc1 [Example 88, N-methoxy-3′-sulfamoyl-2′-(2H-tetrazol-5-yl)biphenyl-4-carboxamide] | 243 | 87.3 | 2.98 | 1.953 | 12.5 | 100 | – | – | – | – | – | – | – |
| NS(=O)(=O)c1nccc(-c2ccc3c(c2)CNC3=O)c1-c1nnn[nH]1 [Example 196, 4-(1-oxoisoindolin-5-yl)-3-(1H-tetrazol-5-yl)pyridine-2-sulfonamide] | 50.3 | 1590 | 45.6 | 1.953 | 125 | 25 | – | – | – | – | – | – | – |
| NS(=O)(=O)c1cccc(-c2ccc3cn[nH]c3c2)c1-c1nn[nH]n1 [Example 90, 3-(1H-indazol-6-yl)-2-(2H-tetrazol-5-yl)benzenesulfonamide] | 15.5 | 197 | 2.24 | 0.5859 | 25 | 12.5 | – | – | – | – | – | – | – |
| NC(=O)c1cccc(-c2cccc(S(N)(=O)=O)c2-c2nn[nH]n2)c1 [Example 81, 3′-sulfamoyl-2′-(2H-tetrazol-5-yl)biphenyl-3-carboxamide] | 255 | 571 | 34.6 | 0.9766 | 37.5 | 37.5 | – | – | – | – | – | – | – |
| NS(=O)(=O)c1nccc(-c2ccc3ncccc3c2)c1-c1nn[nH]n1 [Example 200, 4-(quinolin-6-yl)-3-(2H-tetrazol-5-yl)pyridine-2-sulfonamide] | 35.6 | 963 | 30.2 | 2.083 | 75 | 50 | – | – | – | – | – | – | – |
| NS(=O)(=O)c1cccc(-c2ccc(C(=O)NCCO)cc2)c1-c1nn[nH]n1 [Example 17, N-(2-hydroxyethyl)-3′-sulfamoyl-2′-(2H-tetrazol-5-yl)biphenyl-4-carboxamide] | 209 | 87.5 | 8.57 | 0.7813 | 53.13 | 100 | – | – | – | – | – | – | – |
| NS(=O)(=O)c1cccc(-c2ccc(N3CCNCC3)nc2)c1-c1nn[nH]n1 [Example 324, 3-(6-(piperazin-1-yl)pyridin-3-yl)-2-(2H-tetrazol-5-yl)benzenesulfonamide] | – | – | – | – | – | – | 404 | 1020 | 105 | 13.28 | 32.81 | 37.5 | – |
| C[C@H](O)c1nc(-c2ccc(-c3cccc(S(N)(=O)=O)c3-c3nn[nH]n3)cc2)no1 [Example 251, (S)-4′-(5-(1-hydroxyethyl)-1,2,4-oxadiazol-3-yl)-2-(2H-tetrazol-5-yl)-[1,1′-biphenyl]-3-sulfonamide] | – | – | – | – | – | – | – | 42.5 | 5.85 | 0.7813 | 6.25 | 200 | 71.6 |
| Nc1ncc(-c2cccc(S(N)(=O)=O)c2-c2nnn[nH]2)cn1 [Example 301, 3-(2-aminopyrimidin-5-yl)-2-(1H-tetrazol-5-yl)benzenesulfonamide] | – | – | – | – | – | – | 282 | 1380 | 8.2 | 0.7813 | 37.5 | 25 | – |
